On to `Cc1c(C)c(N2CCN(c3ccc(CN(C)C)cc3)CC2)c(C)c2c1OC(C)(C)C2`, for which the melting point fell in the range of 134 to 138 °C.
The same measure for `CC(=O)N1CCC(C)(C)C2=C1CCc1cc(Cl)ccc12`: 126 to 127 °C.
Compound `COc1cccc(-c2cnn3c(-c4cccc(NC(=O)CC(C)C)c4)ccnc23)c1` registered a melting point of 153 to 154 °C.
For the compound `CC(=O)Cc1ccc2oc(C(=O)O)c(C)c2c1`, the melting point fell in the range of 77 to 79 °C.
Compound `CC(C)CNc1cccc(-c2ccnc3c(C(=O)c4cccs4)cnn23)c1` displayed a melting point of 186 to 188 °C.
For `O=[N+]([O-])c1ccc(SCl)c(C(Cl)(Cl)Cl)c1`, the melting point was in the range of 56 to 57 °C.
To `CCOC(=O)c1cnc2ccc(-c3ccc(C(F)(F)F)cc3)cn12` belongs 118 °C; to `CC(C)(C)CNc1cc(Cl)nc(NCC(C)(C)C)n1`, 95 to 98 °C.
Take `CC(C)Cc1c(Cl)sc2[nH]c(=O)c(=O)[nH]c12`: the melting point was over 270 °C.
Regarding `CCCOc1ccnc2[nH]cc(-c3ccnc(N)n3)c12`, the melting point is over 210 °C.
`COc1ccc(C2Cc3ccccc3N=C(C)N2C)cc1` (stereo not given) showed a melting point of 130 to 132 °C.
`CC(C)(C)OC(=O)N1C[C@@H]([C@H]2COC(C)(C)O2)CC1=O` had a melting point of 106 to 108 °C.
The same measure for `O=C(NC(=S)Nc1nc(-c2ccc3c(c2)CCCC3)cs1)c1cccc2ccccc12`: 216 to 217 °C; for `COc1ccc2c(c1)CCC1CCNC(=O)C(CC(C)=NO)=C21` (stereo not given): 216 to 218 °C; for `CCOC(=O)CCCOc1nn2c(-c3ccc(OC)cc3)nnc2c2ccccc12`: 114 to 117 °C.
To `COC(=O)C(C(=O)OC)=C1SC=CS1` belongs 125 to 129 °C.
To `O=[N+]([O-])c1cccc(Nc2nc(Cl)nc(Cl)n2)c1` belongs 173 °C; to `CN(N)C(=S)Nc1ccc([N+](=O)[O-])cc1Cl`, 164 to 167 °C; to `CCS(=O)(=O)CCC(=O)NNC(=O)N1Cc2ccccc2Oc2ccc(C)cc21`, 167 to 169 °C.
The compound `CS(=O)(=O)Nc1c(C(=O)c2cccc(Cl)c2)[nH]c2ccc(Cl)cc12` came in with a melting point of 220 to 221 °C.
As to `CN1CCC(O)(c2cc(F)cc(Cl)c2)C1` (stereo not given), the melting point is 117 to 118 °C.
`CC(C)CCOC(=O)c1cc2c([nH]c3ccccc32)c(-c2ccc3c(n2)C(=O)C(NC(=O)CCl)=CC3=O)n1` returned a melting point of 280 to 284 °C.
To `COc1ccc2[nH]c3c(c2c1[N+](=O)[O-])CCC3O` (stereo not given) belongs 230 °C; to `CCc1cnc(OCCOc2ncnc(NS(=O)(=O)c3ccc(C(C)(C)C)cc3)c2Oc2cccc(OC)c2)nc1`, 158 to 160 °C; to `Cn1cccc1C(=O)c1sc(Nc2ccc3[nH]cnc3c2)nc1N`, 284 to 285 °C.
`CCCCSc1c2sc3ccccc3nc-2cc(C)c1=O` yielded a melting point of 97 °C.
Turning to `Cc1cc(C2(C(F)(F)F)CC(n3cncn3)=NO2)ccc1NC(=O)OC(C)(C)C` (stereo not given), the melting point lay within 46 to 48 °C.
The compound `O=S1(=O)OCC(COC(C(F)(F)F)(C(F)(F)F)C(F)(F)F)(COC(C(F)(F)F)(C(F)(F)F)C(F)(F)F)CO1` displayed a melting point of 90 to 91 °C.
`Cc1cc(CNC(=O)c2nc3n(c(=O)c2O)CCN3C)ccc1F`: the melting point lay within 187 to 189 °C.
The same measure for `CCc1csc(NC(=O)Nc2ccc(N3CCN(C(=O)Nc4ccc(OCCO)cc4C(F)(F)F)CC3)cc2)n1`: 124 to 125 °C.
Turning to `COc1cc2c(cc1OC)CN(CN1CCc3cc(OC)c(OC)cc3C1)CC2`, the melting point is 126 °C.
The same measure for `CC(C)(C)c1cc(-c2csc(CNC(=O)Cc3ccccc3)n2)cc(C(C)(C)C)c1O`: 124 to 125 °C.
The same measure for `FC(F)(F)c1ccc(-c2cc(Oc3ccc4cccnc4c3)nnc2-c2ccccc2)cc1`: 178 to 183 °C; for `CNC(=O)C(C)Oc1ccc(O)cc1` (stereo not given): 112 °C.
`COc1cc2[nH]c(=O)c3c(c2cc1OC)CCN(CCN(C)C)C3` returned a melting point of 160 to 164 °C.
The same measure for `c1ccc2[nH]c(Cc3ccncc3)nc2c1`: 185 to 186 °C; for `CC(=O)Nc1c(O)cc(C(=O)O)cc1[N+](=O)[O-]`: 215 to 220 °C; for `CC1=C(CO)C(=O)OC(C(C)C2CCC3C4CC5OC56C(O)C=CC(=O)C6(C)C4CCC23C)C1` (stereo not given): 227 to 228 °C.
`Cn1nc2ccccc2c1C(=O)NC1CCN(Cc2ccccc2)CC1`: the melting point was 167 to 169 °C.
For `CCCOc1ccc(F)c2c1c(CCN(C)C)cn2CC`, the melting point is 49 to 50 °C.
The same measure for `COC(=O)C(C(=O)OC)c1ccccc1C(=O)O`: 119 to 120 °C; for `COC(=O)CCC(=O)CBr`: 12 to 15 °C.
To `COCC(=O)Oc1ccc(C=CNC(C)=O)cc1` belongs 169 to 170 °C.
Regarding `COc1cc(C(C)(C)CC(C)(C)C)c(OC)cc1C(=O)CCC(=O)O`, the melting point came out at 142 °C.
To `CC1CCCCN1CCNc1ccnc2cc(Cl)ccc12` (racemic) belongs 133 to 134 °C; to `CC(C)(C)OC(=O)N1CCCCc2ccc(Cl)nc21`, 166 to 168 °C.
The same measure for `CS(=O)(=O)Nc1cc2oc(C(N)=O)cc(=O)c2cc1Oc1ccccc1`: over 250 °C; for `Nc1nc(N)c(-c2cccc(Cl)c2Cl)c(CO)n1`: 173 to 176 °C; for `CC#CCOc1ccc(SC(C(=O)O)c2ccc(-c3cccs3)cc2)cc1` (stereo not given): 137 °C.
The compound `CN(CCO)Cc1cc(C(=O)c2ccccc2)cc(C2CCCCC2)c1O` yielded a melting point of 92 to 93 °C.
The same measure for `NC(=O)c1ccccc1N1CCc2cc(Br)ccc21`: 120 to 122 °C; for `CCC(CC)c1ccc(Cl)c2nc(Cl)n(C)c12`: 94 to 95 °C; for `O=c1ccc2cc(C(c3ccccc3)n3ccnc3)ccc2[nH]1` (stereo not given): 227 °C.
`COc1ccc(CNC(=O)c2cc3c(=O)n(Cc4ccc(C(=O)O)cc4)cnc3cn2)cc1` had a melting point of 245 to 246 °C.
The same measure for `Cc1cccc(-c2ccc3c(c2)CC[C@H]2N(C)C(=O)CC[C@]32C)c1C`: 133 to 140 °C; for `CN(C)C(=O)N(c1ccc(OC(F)(F)F)c(Cl)c1)C(C(=O)O)c1ccc(Cl)cc1` (stereo not given): 77 °C.
The same measure for `Cc1ccc(C=CCC#N)cc1`: 60 to 61 °C.
The same measure for `CC1(Cc2cc(C(C)(C)C)c(O)c(C(C)(C)C)c2)CCCCC1=O` (stereo not given): 75 °C; for `Oc1cc(Cl)c(OCc2ccc(F)c(Oc3ccccc3)c2)c(Cl)c1`: 145 °C; for `CCOc1cccnc1CSCCN=C(NC#N)SC`: 98 to 99 °C.
Turning to `O=C(c1ccccc1F)c1cc(Cl)ccc1C#CCN1C(=O)c2ccccc2C1=O`, the melting point was 158 to 161 °C.
In the case of `CC(=O)C=Cc1c(C)c(C)c(C)c2c1OCC2`, the melting point is 116 °C.
The same measure for `COC(=O)c1ccc(-c2nnc(-c3ccc(C(F)(F)F)cc3)o2)c(N)c1`: 237 to 238 °C; for `COc1cc(-c2ccccc2)c(OC)cc1Nc1ncnc2cc(OC)c(OC)cc12`: 226 to 229 °C.
The same measure for `Clc1cc(Cl)c(Oc2c(Cl)ncnc2Cl)c(Cl)c1`: 104 to 105 °C.
To `COC(=O)C1CN(C(C)=O)c2ccccc2CN1S(=O)(=O)c1ccc(OC)cc1` (stereo not given) belongs 150 to 155 °C; to `O=C1NC(=O)C(=Cc2ccc(OCCN(Cc3ccccc3)c3nc4ccccc4s3)cc2)S1`, 185 to 188 °C.
`O=C(Cc1ccc([N+](=O)[O-])cc1)CN1C(=O)c2ccccc2C1=O` yielded a melting point of 184 °C.
`CCOC(=O)Cc1ccc(CCN2CCN(C(=O)C=Cc3cc(C(C)(C)C)c(O)c(C(C)(C)C)c3)CC2)cc1` had a melting point of 111 to 113 °C.
To `N=C(Nc1ccccc1CN1CCOCC1)N1CCOCC1` belongs 118 to 119 °C.
As for `O=C(O)c1ccc2cc(OCCCCCCc3cccc(O)c3O)ccc2c1`, the melting point was in the range of 167 to 171 °C.
To `CCc1nc2cc(C(F)(F)F)c(Cl)cc2n1-c1ccc(C[C@H](C)NC(=O)NS(=O)(=O)c2ccc(C)cc2)cc1` belongs 138 to 141 °C.
Turning to `Cn1c(CC(=O)O)c(C(=O)O)c(Br)c1C(=O)c1ccc(Cl)cc1`, the melting point lay within 261 to 263 °C.
To `CCCCOC(=O)c1ccccc1C(=O)Nc1nc2ccccc2[nH]1` belongs 187 °C; to `CC(=O)c1c(-c2ccncc2)sc(-c2ccncc2)c1C`, 137 to 138 °C.
For `COc1ccc2[nH]c(SCc3nccc(N(C)C)n3)nc2c1`, the melting point was in the range of 182 to 183 °C.
For the compound `CC(C)(C)c1cc(C(=O)c2nccs2)cc(C(C)(C)C)c1O`, the melting point lay within 106 to 108 °C.
`O=c1cccc(-c2ccccn2)[nH]1`: the melting point was 124 to 127 °C.
In turn, `CCn1c(=O)sc2cc(N3C[C@H](C(N)=O)OC3=O)ccc21` came in with a melting point of 211 to 212 °C.
In the case of `CCOc1cccc(Oc2cccnc2C#N)c1`, the melting point fell in the range of 83 to 84 °C.
Take `COc1ccc(C=C2SC(=S)N(CC(=O)O)C2=O)cc1`: the melting point was 250 to 253 °C.
To `O=C(NN=Cc1ccnc2ccccc12)c1ccc(C(F)(F)F)cc1` belongs 240 °C; to `CCOC(=O)COC(=O)c1cccnc1C#N`, 74 °C.
`CCOC(=O)CN1C(=O)C(NC(=O)Nc2ccc(Cl)cc2)N=C(c2ccccc2)c2ccccc21` (stereo not given) showed a melting point of 228 to 229 °C.
As to `Nc1c([N+](=O)[O-])ccc(Sc2ccccc2)c1Cl`, the melting point lay in the range of 144 to 146 °C.
Compound `CCOC(=O)/C=C/c1nc(COc2ccc(C=O)cc2OC)c(C)o1` came in with a melting point of 117 to 118 °C.
For `NC1=NC(c2ccc(OC(F)F)cc2)(c2cccc(-c3cccnc3F)c2)C2=NCC3(COC3)CN12` (stereo not given), the melting point lay within 96 to 107 °C.
With `NNC1=Nc2ccc(C(F)(F)F)cc2C(c2ccccc2)=NC1`, the melting point was determined as 127 °C.
Compound `COCCOc1ccc(Sc2c(O)c3c(=O)n(-c4ccccc4)c4ccccc4c3oc2=O)cc1` gave a melting point of 144 to 146 °C.
Consider `C=Cn1nc(-c2c(-c3ccccc3)nn3ccccc23)ccc1=O`, for which the melting point worked out at 188 °C.

Values taken from a melting point compilation (Tetko et al.; mined from patent text by program, amines drawn as free bases though some values may be those of a salt).
